{"source": "ChEMBL document CHEMBL1130625", "about": "“Synthesis and antibacterial activity of novel 7-(3-substituted-3 or 4-trifluoromethyl-1-pyrrolidinyl)-8-methoxyfluoroquinolones” (1998)", "key": {"[1]": {"system": "Proteus mirabilis", "assay": "Compound was tested for antibacterial activity against gram negative Proteus mirabilis JY-10", "type": "functional", "settings": "Proteus mirabilis; read-out: MIC"}, "[2]": {"system": "Proteus vulgaris", "assay": "Compound was tested for antibacterial activity against gram negative Proteus vulgaris No.33", "type": "functional", "settings": "Proteus vulgaris; read-out: MIC"}, "[3]": {"system": "Pseudomonas aeruginosa", "assay": "Compound was tested for antibacterial activity against gram negative Pseudomonas aeruginosa K-13", "type": "functional", "settings": "Pseudomonas aeruginosa; read-out: MIC"}, "[4]": {"system": "Pseudomonas aeruginosa", "assay": "Compound was tested for antibacterial activity against gram negative Pseudomonas aeruginosa PAO1", "type": "functional", "settings": "Pseudomonas aeruginosa; read-out: MIC"}, "[5]": {"system": "Escherichia coli", "assay": "Compound was tested for antibacterial activity against gram negative Escherichia coli CSH2/RK1", "type": "functional", "settings": "Escherichia coli; read-out: MIC"}, "[6]": {"system": "Klebsiella oxytoca", "assay": "Compound was tested for antibacterial activity against gram negative Klebsiella oxytoca GN 10650", "type": "functional", "settings": "Klebsiella oxytoca; read-out: MIC"}, "[7]": {"system": "Staphylococcus aureus", "assay": "Compound was tested for antibacterial activity against gram positive Staphylococcus aureus JS-1", "type": "functional", "settings": "Staphylococcus aureus; read-out: MIC"}, "[8]": {"system": "Enterococcus faecalis", "assay": "Compound was tested for antibacterial activity against gram positive Enterococcus faecalis 1373", "type": "functional", "settings": "Enterococcus faecalis; read-out: MIC"}, "[9]": {"system": "Streptococcus pyogenes", "assay": "Compound was tested for antibacterial activity against gram positive Streptococcus pyogenes cook", "settings": "Streptococcus pyogenes; read-out: MIC"}, "[10]": {"system": "Proteus vulgaris", "assay": "Compound was tested for antibacterial activity against gram negative Proteus vulgaris KS-134", "type": "functional", "settings": "Proteus vulgaris; read-out: MIC"}, "[11]": {"system": "Pseudomonas aeruginosa", "assay": "Compound was tested for antibacterial activity against gram negative Pseudomonas aeruginosa KP-254", "type": "functional", "settings": "Pseudomonas aeruginosa; read-out: MIC"}, "[12]": {"system": "Escherichia coli", "assay": "Compound was tested for antibacterial activity against gram negative Escherichia coli CSH2/RE45", "type": "functional", "settings": "Escherichia coli; read-out: MIC"}, "[13]": {"system": "Klebsiella pneumoniae", "assay": "Compound was tested for antibacterial activity against gram negative Klebsiella pneumoniae KC-1", "type": "functional", "settings": "Klebsiella pneumoniae; read-out: MIC"}, "[14]": {"system": "Staphylococcus aureus", "assay": "Compound was tested for antibacterial activity against gram positive Staphylococcus aureus KP-90-3", "type": "functional", "settings": "Staphylococcus aureus; read-out: MIC"}, "[15]": {"system": "Serratia marcescens", "assay": "Compound was tested for antibacterial activity against gram negative Serratia marcescens No.16-2", "type": "functional", "settings": "Serratia marcescens; read-out: MIC"}, "[16]": {"system": "Citrobacter freundii", "assay": "Compound was tested for antibacterial activity against gram negative Citrobacter freundii KP-29", "type": "functional", "settings": "Citrobacter freundii; read-out: MIC"}, "[17]": {"system": "Enterobacter cloacae", "assay": "Compound was tested for antibacterial activity against gram negative Enterobacter cloacae Nek39", "type": "functional", "settings": "Enterobacter cloacae; read-out: MIC"}, "[18]": {"system": "Staphylococcus aureus", "assay": "Compound was tested for antibacterial activity against gram positive Staphylococcus aureus smith", "type": "functional"}, "[19]": {"system": "Citrobacter freundii", "assay": "Compound was tested for antibacterial activity against gram negative Citrobacter freundii No.7", "type": "functional", "settings": "Citrobacter freundii; read-out: MIC"}, "[20]": {"system": "Burkholderia cepacia", "assay": "Compound was tested for antibacterial activity against gram negative Burkholderia cepacia 23", "type": "functional", "settings": "Burkholderia cepacia; read-out: MIC"}, "[21]": {"system": "Acinetobacter calcoaceticus", "assay": "Compound was tested for antibacterial activity against gram negative Acinetobacter calcoaceticus No.4", "type": "functional", "settings": "Acinetobacter calcoaceticus; read-out: MIC"}, "[22]": {"system": "Escherichia coli", "assay": "Compound was tested for antibacterial activity against gram negative Escherichia coli ML4707", "type": "functional", "settings": "Escherichia coli; read-out: MIC"}, "[23]": {"system": "Escherichia coli", "assay": "Compound was tested for antibacterial activity against gram negative Escherichia coli NIHJ JC-2", "type": "functional", "settings": "Escherichia coli; read-out: MIC"}, "[24]": {"system": "Pseudomonas aeruginosa", "assay": "Compound was tested for antibacterial activity against gram negative Pseudomonas aeruginosa AK109", "type": "functional", "settings": "Pseudomonas aeruginosa; read-out: MIC"}, "[25]": {"system": "Klebsiella pneumoniae", "assay": "Compound was tested for antibacterial activity against gram negative Klebsiella pneumoniae No.42", "type": "functional", "settings": "Klebsiella pneumoniae; read-out: MIC"}, "[26]": {"system": "Staphylococcus aureus", "assay": "Compound was tested for antibacterial activity against gram positive Staphylococcus aureus FDA 209P JC-1", "type": "functional", "settings": "Staphylococcus aureus; read-out: MIC"}}, "data": [{"smiles": "COc1c(N2C[C@@H](N)[C@H](C(F)(F)F)C2)c(F)cc2c(=O)c(C(=O)O)cn(C3CC3)c12.O=C(O)C(F)(F)F", "values": [{"measurement": "MIC", "setting": "[1]", "value": 0.2, "unit": "µg/mL"}, {"measurement": "MIC", "setting": "[2]", "value": 0.39, "unit": "µg/mL"}, {"measurement": "MIC", "setting": "[3]", "value": 25, "unit": "µg/mL"}, {"measurement": "MIC", "setting": "[4]", "value": 3.13, "unit": "µg/mL"}, {"measurement": "MIC", "setting": "[5]", "value": 3.13, "unit": "µg/mL"}, {"measurement": "MIC", "setting": "[6]", "value": 0.39, "unit": "µg/mL"}, {"measurement": "MIC", "setting": "[7]", "value": 0.05, "unit": "µg/mL"}, {"measurement": "MIC", "setting": "[8]", "value": 0.39, "unit": "µg/mL"}, {"measurement": "MIC", "setting": "[9]", "value": 0.39, "unit": "µg/mL"}, {"measurement": "MIC", "setting": "[10]", "value": 100, "unit": "µg/mL"}, {"measurement": "MIC", "setting": "[11]", "value": "> 100", "unit": "µg/mL"}, {"measurement": "MIC", "setting": "[12]", "value": 3.13, "unit": "µg/mL"}, {"measurement": "MIC", "setting": "[13]", "value": 0.39, "unit": "µg/mL"}, {"measurement": "MIC", "setting": "[14]", "value": 3.13, "unit": "µg/mL"}, {"measurement": "MIC", "setting": "[15]", "value": 3.13, "unit": "µg/mL"}, {"measurement": "MIC", "setting": "[16]", "value": 100, "unit": "µg/mL"}, {"measurement": "MIC", "setting": "[17]", "value": 3.13, "unit": "µg/mL"}, {"measurement": "MIC", "setting": "[18]", "value": 0.05, "unit": "µg/mL"}, {"measurement": "MIC", "setting": "[19]", "value": 3.13, "unit": "µg/mL"}, {"measurement": "MIC", "setting": "[20]", "value": 1.56, "unit": "µg/mL"}, {"measurement": "MIC", "setting": "[21]", "value": 0.2, "unit": "µg/mL"}, {"measurement": "MIC", "setting": "[22]", "value": 0.05, "unit": "µg/mL"}, {"measurement": "MIC", "setting": "[23]", "value": 0.39, "unit": "µg/mL"}, {"measurement": "MIC", "setting": "[24]", "value": 6.25, "unit": "µg/mL"}, {"measurement": "MIC", "setting": "[25]", "value": 0.39, "unit": "µg/mL"}, {"measurement": "MIC", "setting": "[26]", "value": 0.1, "unit": "µg/mL"}]}, {"smiles": "COc1c(N2C[C@H](CN)[C@H](C(F)(F)F)C2)c(F)cc2c(=O)c(C(=O)O)cn(C3CC3)c12.Cl", "values": [{"measurement": "MIC", "setting": "[1]", "value": 0.025, "unit": "µg/mL"}, {"measurement": "MIC", "setting": "[2]", "value": 0.05, "unit": "µg/mL"}, {"measurement": "MIC", "setting": "[3]", "value": 3.13, "unit": "µg/mL"}, {"measurement": "MIC", "setting": "[4]", "value": 0.78, "unit": "µg/mL"}, {"measurement": "MIC", "setting": "[5]", "value": 0.2, "unit": "µg/mL"}, {"measurement": "MIC", "setting": "[6]", "value": 0.05, "unit": "µg/mL"}, {"measurement": "MIC", "setting": "[7]", "value": "≤ 0.006", "unit": "µg/mL"}, {"measurement": "MIC", "setting": "[8]", "value": 0.05, "unit": "µg/mL"}, {"measurement": "MIC", "setting": "[9]", "value": "≤ 0.006", "unit": "µg/mL"}, {"measurement": "MIC", "setting": "[10]", "value": 25, "unit": "µg/mL"}, {"measurement": "MIC", "setting": "[11]", "value": 50, "unit": "µg/mL"}, {"measurement": "MIC", "setting": "[12]", "value": 0.2, "unit": "µg/mL"}, {"measurement": "MIC", "setting": "[13]", "value": 0.05, "unit": "µg/mL"}, {"measurement": "MIC", "setting": "[14]", "value": 0.2, "unit": "µg/mL"}, {"measurement": "MIC", "setting": "[15]", "value": 0.78, "unit": "µg/mL"}, {"measurement": "MIC", "setting": "[16]", "value": 6.25, "unit": "µg/mL"}, {"measurement": "MIC", "setting": "[17]", "value": 0.39, "unit": "µg/mL"}, {"measurement": "MIC", "setting": "[18]", "value": "≤ 0.006", "unit": "µg/mL"}, {"measurement": "MIC", "setting": "[19]", "value": 0.78, "unit": "µg/mL"}, {"measurement": "MIC", "setting": "[20]", "value": 1.56, "unit": "µg/mL"}, {"measurement": "MIC", "setting": "[21]", "value": 0.1, "unit": "µg/mL"}, {"measurement": "MIC", "setting": "[22]", "value": 0.025, "unit": "µg/mL"}, {"measurement": "MIC", "setting": "[23]", "value": 0.05, "unit": "µg/mL"}, {"measurement": "MIC", "setting": "[24]", "value": 0.78, "unit": "µg/mL"}, {"measurement": "MIC", "setting": "[25]", "value": 0.1, "unit": "µg/mL"}, {"measurement": "MIC", "setting": "[26]", "value": 0.025, "unit": "µg/mL"}]}, {"smiles": "COc1c(N2C[C@H](CO)[C@H](C(F)(F)F)C2)c(F)cc2c(=O)c(C(=O)O)cn(C3CC3)c12", "values": [{"measurement": "MIC", "setting": "[1]", "value": 0.1, "unit": "µg/mL"}, {"measurement": "MIC", "setting": "[2]", "value": 0.39, "unit": "µg/mL"}, {"measurement": "MIC", "setting": "[3]", "value": 25, "unit": "µg/mL"}, {"measurement": "MIC", "setting": "[4]", "value": 3.13, "unit": "µg/mL"}, {"measurement": "MIC", "setting": "[5]", "value": 3.13, "unit": "µg/mL"}, {"measurement": "MIC", "setting": "[6]", "value": 0.78, "unit": "µg/mL"}, {"measurement": "MIC", "setting": "[7]", "value": "≤ 0.006", "unit": "µg/mL"}, {"measurement": "MIC", "setting": "[8]", "value": 0.1, "unit": "µg/mL"}, {"measurement": "MIC", "setting": "[9]", "value": 0.05, "unit": "µg/mL"}, {"measurement": "MIC", "setting": "[10]", "value": 100, "unit": "µg/mL"}, {"measurement": "MIC", "setting": "[11]", "value": "> 100", "unit": "µg/mL"}, {"measurement": "MIC", "setting": "[12]", "value": 3.13, "unit": "µg/mL"}, {"measurement": "MIC", "setting": "[13]", "value": 0.39, "unit": "µg/mL"}, {"measurement": "MIC", "setting": "[14]", "value": 0.39, "unit": "µg/mL"}, {"measurement": "MIC", "setting": "[15]", "value": 3.13, "unit": "µg/mL"}, {"measurement": "MIC", "setting": "[16]", "value": "> 100", "unit": "µg/mL"}, {"measurement": "MIC", "setting": "[17]", "value": 1.56, "unit": "µg/mL"}, {"measurement": "MIC", "setting": "[18]", "value": "≤ 0.006", "unit": "µg/mL"}, {"measurement": "MIC", "setting": "[19]", "value": 6.25, "unit": "µg/mL"}, {"measurement": "MIC", "setting": "[20]", "value": 1.56, "unit": "µg/mL"}, {"measurement": "MIC", "setting": "[21]", "value": 0.2, "unit": "µg/mL"}, {"measurement": "MIC", "setting": "[22]", "value": 0.2, "unit": "µg/mL"}, {"measurement": "MIC", "setting": "[23]", "value": 0.39, "unit": "µg/mL"}, {"measurement": "MIC", "setting": "[24]", "value": 3.13, "unit": "µg/mL"}, {"measurement": "MIC", "setting": "[25]", "value": 0.78, "unit": "µg/mL"}, {"measurement": "MIC", "setting": "[26]", "value": 0.013, "unit": "µg/mL"}]}]}
